Measured values as given in EP1935986B1, “Luminogenic and fluorogenic compounds and methods to detect molecules or conditions” (priority 2005, dated 2006).
Each block holds one compound with its values, some of them ahead of it.

What was measured:
[1] = target: T1, CYP1A2 (Homo sapiens, UniProt P05177); assay: Two-step luminescent P450 screen of luciferin derivatives; assay type: biochemical; settings: 50 µM substrate, 1 pmole P450; result in words
T1 construct: purchased Discovery Labware (BD/Gentest); host or cells: insect cell expression system (membrane fractions)
T1 sequence (P05177 2-516 limits assumed): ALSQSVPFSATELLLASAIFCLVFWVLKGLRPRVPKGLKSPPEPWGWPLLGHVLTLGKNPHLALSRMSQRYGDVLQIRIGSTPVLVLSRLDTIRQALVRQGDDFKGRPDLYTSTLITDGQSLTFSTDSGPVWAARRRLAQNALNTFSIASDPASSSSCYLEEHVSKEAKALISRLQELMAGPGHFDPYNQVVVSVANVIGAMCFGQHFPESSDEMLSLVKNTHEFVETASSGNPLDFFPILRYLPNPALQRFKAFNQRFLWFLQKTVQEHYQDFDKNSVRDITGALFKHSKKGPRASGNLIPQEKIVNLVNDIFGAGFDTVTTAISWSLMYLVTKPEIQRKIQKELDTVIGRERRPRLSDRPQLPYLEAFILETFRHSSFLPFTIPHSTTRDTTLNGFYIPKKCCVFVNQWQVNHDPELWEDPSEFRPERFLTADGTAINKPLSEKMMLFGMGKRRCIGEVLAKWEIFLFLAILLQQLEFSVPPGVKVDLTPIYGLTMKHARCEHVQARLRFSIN
Method: (§1) P450s are Supersomes™ purchased from Discovery Labware (BD/Gentest). […] HLM is human liver microsomes.
(§2) 1X substrate concentration: 50 µM.

[2] = target: T2, human recombinant monoamine oxidase B (MAO B) (Homo sapiens, UniProt P27338); assay: One-step fluorogenic MAO assay with MAO-F3; assay type: biochemical
T2 construct: purchased Sigma Chemical Company M-7441; host or cells: baculovirus infected insect cells (microsomes)
T2 sequence (P27338 1-520): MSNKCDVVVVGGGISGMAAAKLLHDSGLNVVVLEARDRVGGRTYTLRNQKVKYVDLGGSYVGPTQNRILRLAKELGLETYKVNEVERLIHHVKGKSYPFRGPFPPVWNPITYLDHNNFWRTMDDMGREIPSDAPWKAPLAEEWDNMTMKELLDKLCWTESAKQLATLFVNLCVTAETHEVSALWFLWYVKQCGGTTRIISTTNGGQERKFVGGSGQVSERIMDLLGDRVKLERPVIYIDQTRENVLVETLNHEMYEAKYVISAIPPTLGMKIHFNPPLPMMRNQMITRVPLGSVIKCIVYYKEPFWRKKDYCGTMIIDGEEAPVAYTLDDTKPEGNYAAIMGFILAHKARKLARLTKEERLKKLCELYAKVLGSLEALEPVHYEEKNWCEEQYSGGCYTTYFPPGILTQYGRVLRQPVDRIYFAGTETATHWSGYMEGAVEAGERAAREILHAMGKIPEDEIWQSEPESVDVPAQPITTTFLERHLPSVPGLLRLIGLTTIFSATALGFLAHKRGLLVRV
Method: (§3) The fluorescent signal was then measured (excitation/emission = 355/460 nm) on a Fluoroskan Ascent plate fluorometer.
(§4) This 90 µl contained 35 µl 200 mM Tricine pH 8.3, 35 µl 200 mM Tricine pH 8.7 (or water), 10 µl 200 mM MgSO4, and 10 µl of each substrate dilution.

[3] = target: T3, human recombinant monoamine oxidase A (MAO A) (Homo sapiens, UniProt P21397); assay: One-step fluorogenic MAO assay with MAO-F3; assay type: biochemical; parameters: purchased Sigma Chemical Company M-7316; host or cells: baculovirus infected insect cells (microsomes)
T3 sequence (P21397 1-527): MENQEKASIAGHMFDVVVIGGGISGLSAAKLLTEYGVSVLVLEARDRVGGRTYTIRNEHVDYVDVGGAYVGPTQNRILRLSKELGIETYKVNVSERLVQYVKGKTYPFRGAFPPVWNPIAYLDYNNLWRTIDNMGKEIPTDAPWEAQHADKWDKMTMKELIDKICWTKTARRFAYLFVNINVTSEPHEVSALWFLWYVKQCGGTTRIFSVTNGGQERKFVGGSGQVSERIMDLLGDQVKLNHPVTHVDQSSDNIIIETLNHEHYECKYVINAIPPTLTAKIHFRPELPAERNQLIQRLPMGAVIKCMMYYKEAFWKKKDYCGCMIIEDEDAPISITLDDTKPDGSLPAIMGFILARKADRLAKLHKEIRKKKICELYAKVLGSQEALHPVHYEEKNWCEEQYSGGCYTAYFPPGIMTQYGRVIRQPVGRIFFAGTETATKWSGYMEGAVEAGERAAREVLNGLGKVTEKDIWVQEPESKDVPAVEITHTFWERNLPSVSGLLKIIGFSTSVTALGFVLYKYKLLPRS
Method: as §3, §4

[4] = One-step fluorogenic MAO assay with MAO-F3, control wells with H2O instead of MAO (fluorescence of the derivative); assay type: biochemical
Method: as §3, §4

[5] = target: CYP3A4 (Homo sapiens, UniProt P08684); assay: Two-step luminescent P450 screen of luciferin derivatives; settings: result in words
[6] = tested on: CYP3A subfamily, CYP3A4, CYP3A5 and CYP3A7; assay: Two-step luminescent P450 screen of luciferin derivatives, selectivity for the CYP3A subfamily; assay type: biochemical, human; settings: result in words
Method: as §1, §2

[7] = target: T4, CYP4F12 (Homo sapiens, UniProt Q9HCS2); assay: Two-step luminescent P450 screen of luciferin derivatives; assay type: biochemical; settings: result in words
T4 construct: purchased Discovery Labware (BD/Gentest); host or cells: insect cell expression system (membrane fractions)
T4 sequence (Q9HCS2 1-524): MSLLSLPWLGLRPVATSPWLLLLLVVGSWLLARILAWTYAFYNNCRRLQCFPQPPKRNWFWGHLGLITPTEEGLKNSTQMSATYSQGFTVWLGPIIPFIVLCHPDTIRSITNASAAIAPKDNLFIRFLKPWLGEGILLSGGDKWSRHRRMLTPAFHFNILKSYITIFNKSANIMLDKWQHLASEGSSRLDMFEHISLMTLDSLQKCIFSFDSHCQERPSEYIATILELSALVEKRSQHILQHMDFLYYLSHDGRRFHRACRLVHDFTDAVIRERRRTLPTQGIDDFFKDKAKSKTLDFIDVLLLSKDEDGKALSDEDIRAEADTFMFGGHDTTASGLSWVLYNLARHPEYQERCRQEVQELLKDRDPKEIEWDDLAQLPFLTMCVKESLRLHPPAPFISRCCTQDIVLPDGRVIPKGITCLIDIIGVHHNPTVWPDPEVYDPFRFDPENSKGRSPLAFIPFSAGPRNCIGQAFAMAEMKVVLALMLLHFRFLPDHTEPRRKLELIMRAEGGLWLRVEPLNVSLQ
Method: as §1, §2

[8] = target: T5, CYP1A1 (Homo sapiens, UniProt P04798); assay: as above; settings: 50 µM substrate, 1 pmole P450, 37°C 30 minutes; result in words
T5 sequence (P04798 1-512): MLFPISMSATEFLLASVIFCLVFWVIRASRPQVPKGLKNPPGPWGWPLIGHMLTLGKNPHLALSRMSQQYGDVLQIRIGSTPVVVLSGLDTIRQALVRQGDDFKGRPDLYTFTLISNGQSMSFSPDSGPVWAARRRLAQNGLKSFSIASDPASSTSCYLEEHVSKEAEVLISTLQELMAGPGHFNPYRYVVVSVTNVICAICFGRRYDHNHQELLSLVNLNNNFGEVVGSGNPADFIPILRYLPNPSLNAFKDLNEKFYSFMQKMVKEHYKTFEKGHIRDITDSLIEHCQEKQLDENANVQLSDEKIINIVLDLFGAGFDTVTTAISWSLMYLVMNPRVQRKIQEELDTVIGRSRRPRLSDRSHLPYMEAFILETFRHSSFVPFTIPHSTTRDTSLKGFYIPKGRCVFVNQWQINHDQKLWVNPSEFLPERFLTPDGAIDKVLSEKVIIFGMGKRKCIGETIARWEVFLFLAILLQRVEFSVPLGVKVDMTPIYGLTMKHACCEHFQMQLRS

[9] = fit of Table 31, fluorescence 355/460 nm

Sequence of CYP3A4 (P08684 2-503 limits assumed): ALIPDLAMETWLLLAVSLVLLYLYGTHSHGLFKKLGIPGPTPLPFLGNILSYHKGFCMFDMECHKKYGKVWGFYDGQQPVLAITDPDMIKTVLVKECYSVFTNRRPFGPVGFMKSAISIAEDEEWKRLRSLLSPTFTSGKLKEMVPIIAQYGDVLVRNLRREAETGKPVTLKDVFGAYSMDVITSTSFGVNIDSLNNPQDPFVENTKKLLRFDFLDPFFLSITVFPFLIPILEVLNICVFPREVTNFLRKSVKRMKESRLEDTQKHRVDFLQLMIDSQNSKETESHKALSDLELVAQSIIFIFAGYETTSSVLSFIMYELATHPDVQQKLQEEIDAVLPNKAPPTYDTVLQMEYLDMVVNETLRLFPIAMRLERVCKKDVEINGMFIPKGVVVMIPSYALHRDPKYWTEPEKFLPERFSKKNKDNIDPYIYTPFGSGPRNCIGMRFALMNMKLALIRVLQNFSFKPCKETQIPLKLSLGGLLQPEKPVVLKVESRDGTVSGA

P450 activity / selectivity with the derivative as substrate [1]: preferred substrate
Compound: COc1ccc2nc(C3=N[C@@H](C(=O)O)CS3)ccc2c1 [Quinolylluciferin 6-methyl ether, 2-(6-methoxyquinolin-2-yl)-4,5-dihydrothiazole-4-carboxylate]

relative fluorescent signal, MAO B ([2]; [MAO-F3] 0.21 µM): 202
relative fluorescent signal, net B ([2]; [MAO-F3] 0.21 µM): 154
relative fluorescent signal, MAO B ([2]; [MAO-F3] 0.84 µM): 689
relative fluorescent signal, net B ([2]; [MAO-F3] 0.84 µM): 632
relative fluorescent signal, MAO B ([2]; [MAO-F3] 3.37 µM): 2198
relative fluorescent signal, net B ([2]; [MAO-F3] 3.37 µM): 2080
relative fluorescent signal, MAO B ([2]; [MAO-F3] 6.75 µM): 3683
relative fluorescent signal, net B ([2]; [MAO-F3] 6.75 µM): 3486
relative fluorescent signal, MAO B ([2]; [MAO-F3] 13.50 µM): 5239
relative fluorescent signal, net B ([2]; [MAO-F3] 13.50 µM): 4891
relative fluorescent signal, MAO B ([2]; [MAO-F3] 26.99 µM): 7468
relative fluorescent signal, net B ([2]; [MAO-F3] 26.99 µM): 6835
relative fluorescent signal, MAO B ([2]; [MAO-F3] 53.98 µM): 9885
relative fluorescent signal, net B ([2]; [MAO-F3] 53.98 µM): 8675
relative fluorescent signal, MAO B ([2]; [MAO-F3] 215.94 µM): 14149
relative fluorescent signal, net B ([2]; [MAO-F3] 215.94 µM): 10774
relative fluorescent signal, MAO B ([2]; [MAO-F3] 431.88 µM): 16590
relative fluorescent signal, net B ([2]; [MAO-F3] 431.88 µM): 11493
relative fluorescent signal, MAO B ([2]; [MAO-F3] 863.75 µM): 17322
relative fluorescent signal, net B ([2]; [MAO-F3] 863.75 µM): 10561
signal-to-background ratios at the Km values ([2]; fit of Table 31): about 13
Km [2, 9]: 16 ± 1 µM
relative fluorescent signal, MAO A ([3]; [MAO-F3] 0.21 µM): 240
relative fluorescent signal, net A ([3]; [MAO-F3] 0.21 µM): 192
relative fluorescent signal, MAO A ([3]; [MAO-F3] 0.84 µM): 815
relative fluorescent signal, net A ([3]; [MAO-F3] 0.84 µM): 758
relative fluorescent signal, MAO A ([3]; [MAO-F3] 3.37 µM): 2604
relative fluorescent signal, net A ([3]; [MAO-F3] 3.37 µM): 2486
relative fluorescent signal, MAO A ([3]; [MAO-F3] 6.75 µM): 4129
relative fluorescent signal, net A ([3]; [MAO-F3] 6.75 µM): 3932
relative fluorescent signal, MAO A ([3]; [MAO-F3] 13.50 µM): 6078
relative fluorescent signal, net A ([3]; [MAO-F3] 13.50 µM): 5730
relative fluorescent signal, MAO A ([3]; [MAO-F3] 26.99 µM): 8461
relative fluorescent signal, net A ([3]; [MAO-F3] 26.99 µM): 7828
relative fluorescent signal, MAO A ([3]; [MAO-F3] 53.98 µM): 11555
relative fluorescent signal, net A ([3]; [MAO-F3] 53.98 µM): 10345
relative fluorescent signal, MAO A ([3]; [MAO-F3] 215.94 µM): 16721
relative fluorescent signal, net A ([3]; [MAO-F3] 215.94 µM): 13346
relative fluorescent signal, MAO A ([3]; [MAO-F3] 431.88 µM): 19530
relative fluorescent signal, net A ([3]; [MAO-F3] 431.88 µM): 14433
relative fluorescent signal, MAO A ([3]; [MAO-F3] 863.75 µM): 21154
relative fluorescent signal, net A ([3]; [MAO-F3] 863.75 µM): 14393
signal-to-background ratios at the Km values ([3]; fit of Table 31): about 15
Km [3, 9]: 21 ± 1 µM
Compound: CNCCCOc1ccc2c(C)cc(=O)oc2c1 [MAO-F3, 7-(4-methyl-3-N-methylaminopropoxy)coumarin]
relative fluorescent signal, no MAO ([4]; [MAO-F3] 0.21 µM): 48
relative fluorescent signal, no MAO ([4]; [MAO-F3] 0.84 µM): 57
relative fluorescent signal, no MAO ([4]; [MAO-F3] 3.37 µM): 118
relative fluorescent signal, no MAO ([4]; [MAO-F3] 6.75 µM): 197
relative fluorescent signal, no MAO ([4]; [MAO-F3] 13.50 µM): 348
relative fluorescent signal, no MAO ([4]; [MAO-F3] 26.99 µM): 633
relative fluorescent signal, no MAO ([4]; [MAO-F3] 53.98 µM): 1210
relative fluorescent signal, no MAO ([4]; [MAO-F3] 215.94 µM): 3375
relative fluorescent signal, no MAO ([4]; [MAO-F3] 431.88 µM): 5097
relative fluorescent signal, no MAO ([4]; [MAO-F3] 863.75 µM): 6761

P450 activity / selectivity with the derivative as substrate [5]: substantial activity
selectivity for three members of the CYP3A subfamily [6]: selective
Compound: O=C(O)[C@H]1CSC(c2nc3ccc(OCc4ccccc4C(F)(F)F)cc3s2)=N1 [6'(o-trifluoromethylbenzyloxy)-luciferin, Luciferin 2-trifluoromethylbenzyl ether]
P450 activity / cross reactivity with the derivative as substrate [7]: did not show substantial cross reactivity

P450 activity / selectivity with the derivative as substrate [8]: strong selectivity
Compound: N-benzyloxycarbonyl aminoluciferin

Compound: N-isobutoxycarbonyl-aminoluciferin [N-isobutoxycarbonyl aminolucifern]
P450 activity / selectivity with the derivative as substrate [8]: strong selectivity

P450 activity / selectivity with the derivative as substrate [5]: substantial activity
selectivity for three members of the CYP3A subfamily [6]: selective
Compound: O=C(O)[C@H]1CSC(c2nc3ccc(OCc4c(F)c(F)c(F)c(CN5CCN(c6ccccc6)CC5)c4F)cc3s2)=N1 [LucPPXE4F, 6'-(2,3,4,6-tetrafluoro-5-((4-phenylpiperizin-1-yl)methyl)benzyloxy)-luciferin]
P450 activity / cross reactivity with the derivative as substrate [7]: did not show substantial cross reactivity

selectivity for three members of the CYP3A subfamily [6]: selective
Compound: O=C(O)[C@H]1CSC(c2nc3ccc(OCc4cc(C(F)(F)F)ccc4C(F)(F)F)cc3s2)=N1 [6'(2,5-ditrifluoromethylbenzyloxy)-luciferin]

selectivity for three members of the CYP3A subfamily [6]: selective
Compound: O=C(O)[C@H]1CSC(c2ccc3cc(OCOCc4ccccc4)ccc3n2)=N1 [6'benzyloxymethoxy-quinolylluciferin, quinolinyl luciferin benzyloxymethyl ether]

P450 activity / selectivity with the derivative as substrate [8]: selective
Compound: Bis-luciferin-methylenediether

P450 activity / selectivity with the derivative as substrate [1]: good selectivity
Compound: COc1ccc2nc(C3=N[C@@H](C(=O)NN)CS3)sc2c1 [luciferin-6-methylether hydrazide, Hydrazide of luciferin methyl ether]
